Here are results for six compounds from patent publication US7147824B2, “Method for suppressing growth of mycobacteria in metalworking fluids” (priority 2003, dated 2006).

Values after ≈ are worked out from the molar mass of the structure shown.

The test system of the first assay is Mycobacterium immunogenum MWF isolates. Description: Anti-mycobacterial activity in MWF, plating on Mycoagar. The conditions noted are these: MCC added to a MWF 24 hours after the isothiazolones had been added. Type of assay: cell-based. As for the experimental part:
The MWFs selected were fluids which had evidence of CMIT incompatibility. The MCC was added to the MWFs 24 hours before the CMIT was added; 24 hours after the CMIT was added; or in a mixture with the CMIT. This was done for each concentration of CMIT (7.5 and 15 ppm) and MCC (250 and 500 ppm). Controls consisted of no biocide and CMIT at 7.5 and 15 ppm. Stability of the isothiazolones was evaluated at time 0 and then after 24 and 48 hours by standard methods for detecting isothiazones. Plating for mycobacteria kill was performed with aliquots from time 0 and 48 hours.
Plating was performed on 100 mm petri dishes containing 20 mL of an appropriate agar. Two different formulations, both based on Plate Count Agar (standard methods for waste and waste water). The medium for recovery of Mycobacterium immunogenum is nutritionally supplemented with TWEEN 80 and glycerin and has three antibiotics (cyclohexamide, chloramphenicol, and gentimicin) to inhibit fungi and unwanted bacteria. This medium with agar is referred to herein as “Mycoagar.”
The MWFs selected were fluids which had evidence of CMIT incompatibility. The MCC was added to the MWFs 24 hours before the CMIT was added at 15 ppm. Stability was evaluated at time 0 and then after 24 and 48 hours by chemical analysis. Plating for mycobacteria kill was performed with aliquots from time O and after 48 hours.
For the compound `O=C([O-])CC(O)(CC(=O)[O-])C(=O)O.[Cu+2]` [MCC, disodium monocopper (II) citrate], the “suppressing growth of the Mycobacterium immunogenum genotype” value is given as “ineffective”.

The test system of the next assay is Mycobacterium immunogenum isolate.
Experiment: not given
The conditions noted are these: Mycobacterium immunogenum isolate from MWF (ATCC 700506); cited from earlier work.
Regarding `NCC[C@H](O)C(=O)N[C@@H]1C[C@H](N)[C@@H](O[C@H]2O[C@H](CN)[C@@H](O)[C@H](O)[C@H]2O)[C@H](O)[C@H]1O[C@H]1O[C@H](CO)[C@@H](O)[C@H](N)[C@H]1O` [amikacin], the MIC was 128 µg/mL (≈ 219 µM).

Turning to `CO[C@@]1(NC(=O)CSCC#N)C(=O)N2C(C(=O)O)=C(CSc3nnnn3C)CS[C@@H]21` [cefinetazole], the minimal inhibitory concentration (MIC) was 64 µg/mL (≈ 136 µM).

In the case of `CO[C@@]1(NC(=O)Cc2cccs2)C(=O)N2C(C(=O)O)=C(COC(N)=O)CS[C@@H]21` [cefoxitin], the MIC is 64 µg/mL (≈ 150 µM).

`C[C@H]1c2cccc(O)c2C(=O)C2=C(O)[C@]3(O)C(=O)C(C(N)=O)=C(O)[C@@H](N(C)C)[C@@H]3[C@@H](O)[C@@H]21` [doxyxycline]: the MIC was > 128 µg/mL.

As to `Cc1cc(NS(=O)(=O)c2ccc(N)cc2)no1` [sulfamethoxazole], the MIC is > 64 µg/mL.
